Numbered stars: 1 amine (or outer) side, 2 acyl side, 3 side chain; on linkers, the order of the positions; unused ones are H or OH. Bridge positions count the residues as written; N and C are the ends. Square brackets hold non-standard residues; d marks the D form. Peptide text beside a SMILES is read from it. X1 = O=C([C@@H](CN[*:1])CSCC1O[C@@H](O)C(O)[C@H](O)[C@H]1O)[*:2]; Dap = NC[C@H](N)C(=O)O; Dha = C=C(N)C(=O)O
How the values were obtained:
Substance-K receptor = molecular target: T1, Substance-K receptor (Rattus norvegicus, UniProt P16610); experiment: pA2 value against Tachykinin receptor 2 in rat vas deferens; format: tissue-based; settings: for Kb: read-out: pA2 (converted)
T1 sequence (P16610 whole entry): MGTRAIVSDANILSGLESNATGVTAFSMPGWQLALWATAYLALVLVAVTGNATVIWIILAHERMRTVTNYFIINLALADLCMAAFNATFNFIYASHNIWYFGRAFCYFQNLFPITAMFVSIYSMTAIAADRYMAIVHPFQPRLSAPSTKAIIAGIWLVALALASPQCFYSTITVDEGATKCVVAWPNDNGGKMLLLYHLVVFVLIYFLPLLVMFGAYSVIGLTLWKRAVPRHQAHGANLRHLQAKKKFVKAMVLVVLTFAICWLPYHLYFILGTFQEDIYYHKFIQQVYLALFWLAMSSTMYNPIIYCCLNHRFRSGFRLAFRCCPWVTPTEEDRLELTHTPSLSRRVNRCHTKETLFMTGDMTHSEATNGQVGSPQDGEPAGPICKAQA

[1] = molecular target: T2, Substance-K receptor (Rattus norvegicus) (UniProt P16610); experiment: Antagonistic activity against Tachykinin receptor 2 in rat vas deferens at 100 nM concentration; format: functional
T2 sequence (whole entry): T1 sequence (P16610 whole entry)

[2] = molecular target: T2, Substance-K receptor (Rattus norvegicus); experiment: Antagonistic activity against Tachykinin receptor 2 in rat vas deferens at 30 nM concentration; format: functional
[3] = molecular target: T2, Substance-K receptor (Rattus norvegicus); experiment: Antagonistic activity against Tachykinin receptor 2 in rat vas deferens at 10 nM concentration; format: functional

| pA2 (Substance-K receptor) | Emax [1] [%] | Emax [2] [%] | Emax [3] [%] | Kb (Substance-K receptor) [nM] | SMILES |
| --- | --- | --- | --- | --- | --- |
| 9.65 |  |  |  |  | C=C1NC(=O)[C@H](CC(C)C)NC(=O)[C@@H]2CNC(=O)C[C@H](NC1=O)C(=O)N[C@@H](Cc1c[nH]c3ccccc13)C(=O)N[C@@H](Cc1ccccc1)C(=O)N2 (cyclo(DWF[Dap]L[Dha]); lactam 1-4) |
|  | 92 | 99 | 96 | 5.62 | CC(C)C[C@@H]1NC(=O)[C@@H]2CNC(=O)C[C@H](NC(=O)[C@H](CSCC3O[C@@H](O)C(O)[C@H](O)[C@H]3O)CNC1=O)C(=O)N[C@@H](Cc1c[nH]c3ccccc13)C(=O)N[C@@H](Cc1ccccc1)C(=O)N2 (some centres undefined) (cyclo(DWF[Dap]L[X1]); lactam 1-4) |
|  | 94 | 96 | 95 | 6.17 | CSCC[C@@H]1NC(=O)[C@H](CC(C)C)NC(=O)[C@@H]2CNC(=O)C[C@H](NC1=O)C(=O)N[C@@H](Cc1c[nH]c3ccccc13)C(=O)N[C@@H](Cc1ccccc1)C(=O)N2 (cyclo(DWF[Dap]LM); lactam 1-4) |

Reference: ChEMBL document CHEMBL1130985, “A novel super-potent neurokinin A receptor antagonist containing dehydroalanine” (Bioorg Med Chem Lett, 1998)
